According to patent US20070099881A1, “Method of treating wounds by enhancing expression of procollagen” (priority 2001, published 2007):
“Also recorded” adds a separate entry of the source.

Key:
[1] = test system: type I procollagen mRNA; assay: Northern blot of type I procollagen mRNA in HF 250 fibroblasts grown on collagen or plastic; assay type: cell-based, human; conditions: 3 μg/ml, 24 hours, vs 10% dimethyl sulfoxide alone; for expression of type I procollagen mRNA (ratio to GAPDH mRNA density) relative to control: fibroblasts grown on collagen; for expression of type I procollagen mRNA relative to control: fibroblasts grown on plastic
Experimental: (§1) A primary cell line of normal human dermal fibroblasts (HF 250) was derived from the outgrowth of cells from explants of discarded foreskin. Fibroblasts were maintained in Dulbecco's modification of Eagles medium (DMEM) supplemented with 10% fetal bovine serum (FBS). Cells were grown to confluence and passed 1:1 by trypsinization. HF 250 cells were used between their 5th and 7th passages.
(§2) Acid-soluble collagen was isolated from rat tail tendons by acetic acid extraction. Briefly, rat tail tendons were teased from adult rat tails and stirred in ice cold 0.5 M acetic acid for 2 days. The solubilized collagen was cleared by centrifugation and the supernatant made 10% in respect to NaCl w/v. The precipitated collagen was collected by centrifugation, resuspended in 1 mM HCl, dialyzed exhaustively against 1 mM HCl, frozen, lyophilized, weighed, resuspended in sterile ice cold 1 mM HCl at 5 mg/ml and stored at 4° C. until needed. The bottoms of 10 cm Petri dishes were covered with cold, sterile collagen solution. Any free collagen solution was removed with a Pasteur pipette and the coated dishes placed in a 37° C. incubator, where they were incubated overnight to allow complete polymerization of the collagen-coated surface.
(§3) To optimize collagen synthesis and processing by cultured fibroblasts, the culture medium was supplemented with 50 μg/ml of vitamin C as L-ascorbic acid 2-phosphate sesquimagnesium salt (Sigma Chemical Co., St. Louis, Mo.). Oxandrolone was the anabolic steroid tested, and it was supplied by Bio-Technology General Corp., Iselin, N.J. A stock solution of oxandrolone was made in a 10% dimethyl-sulfoxide solution.
(§4) Equal numbers of fibroblasts were plated onto tissue culture plastic dishes or collagen-coated Petri dishes. Four confluent 10 cm dishes of HF 250 cells were split in half and the cells replated in four 10 cm collagen-coated and four uncoated dishes. Two collagen-coated dishes and two uncoated dishes received 3 μg/ml of oxandrolone. The two remaining collagen-coated and uncoated dishes received an equal volume of 10% dimethyl-sulfoxide alone. After 24 hours of incubation, the medium was removed and the dishes rinsed with phosphate buffered saline. Northern blot analysis was used to determine the levels of both type I and type III procollagen mRNA expression. Total RNA was extracted from culture cells, using the Total RNA Isolation kit (Ambion, Inc; Austin, Tex.) following the supplier's instructions. […]
(§5) Total extracted RNA was subjected to agarose gel electrophoresis and blotted on a nylon membrane. […] The x-ray film was developed and quantitative analysis done by densitometry. […] The quantities of type I and type III procollagen α1 mRNAs and GAPDH mRNA were determined by densitometry. […]

[2] = test system: type III procollagen mRNA; assay: Northern blot of type III procollagen mRNA in HF 250 fibroblasts grown on collagen or plastic; assay type: cell-based, human; conditions: 3 μg/ml, 24 hours, vs 10% dimethyl sulfoxide alone; for increase of type III procollagen mRNA expression (ratio to GAPDH mRNA density) relative to control: fibroblasts grown on collagen; for expression of type III procollagen mRNA relative to control: fibroblasts grown on plastic
Experimental: as §1, §2, §3, §4, §5

[3] = test system: normal human dermal fibroblasts (HF 250); assay: Pilot study: collagen produced by fibroblast cultures, pepsin extraction and SDS-PAGE of collagen α chains; assay type: cell-based; conditions: 0, 1, 3, 10 or 30 μg/ml tested, 24 hours, ascorbate 50 μg/ml, Coomassie-stained SDS-PAGE; data not shown
Experimental: as §1, §3
An initial pilot study was conducted to determine the concentration of anabolic steroid that would maximize collagen synthesis, as follows. After fibroblast cultures became confluent in 2 days, the culture medium was replaced with a medium supplemented with ascorbate at 50 μg/ml. To each dish, a different concentration of oxandrolone was added (0, 1, 3, 10 or 30 μg/ml). Dishes were incubated for 24 hours in a water saturated atmosphere at 37° in 95% air, 5% CO2. […]

[4] = test system: HF 250 cells; assay: Cell number and morphology of fibroblasts grown on collagen or plastic; assay type: cell-based, human; conditions: 3 μg/ml, 24 hours
Experimental: Equal numbers of fibroblasts were plated onto tissue culture plastic dishes or collagen-coated Petri dishes. Four confluent 10 cm dishes of HF 250 cells were split in half and the cells replated in four 10 cm collagen-coated and four uncoated dishes. Two collagen-coated dishes and two uncoated dishes received 3 μg/ml of oxandrolone. The two remaining collagen-coated and uncoated dishes received an equal volume of 10% dimethyl-sulfoxide alone. After 24 hours of incubation, the medium was removed and the dishes rinsed with phosphate buffered saline. Northern blot analysis was used to determine the levels of both type I and type III procollagen mRNA expression. Total RNA was extracted from culture cells, using the Total RNA Isolation kit (Ambion, Inc; Austin, Tex.) following the supplier's instructions. Type I and type III procollagen cDNAs were purchased from American Type Culture Collection (Manassas, Va.). The human α1 (I) (HF677) and α1 (III) (HF934) procollagen cDNAs were enzymatically cleaved, purified, and subsequently end-labeled with ^32P dCTP (New England Nuclear, Boston, Mass.) to generate specific cDNA probes.
By 24 hours, the density of cells on the plastic surface appeared greater than the density of cells grown on collagen. […] See, e.g., Greco and Ehrlich (1992).

C[C@]12COC(=O)C[C@@H]1CC[C@@H]1[C@@H]2CC[C@@]2(C)[C@H]1CC[C@]2(C)O [Oxandrolone, 17-methyl-17-hydroxy-2-oxa-5-androstan-3-one]
expression of type I procollagen mRNA (ratio to GAPDH mRNA density) relative to control [1]: doubled; also recorded: increased | expression of type I procollagen mRNA (ratio to GAPDH mRNA density) relative to control ([1]; listed as oxandrolone): doubles | expression of type I procollagen mRNA relative to control [1]: did not noticeably change; also recorded: minimal effect | expression of type I procollagen mRNA relative to control ([1]; listed as oxandrolone): minimal change | increase of type III procollagen mRNA expression (ratio to GAPDH mRNA density) relative to control [2]: enhanced | increase of type III procollagen mRNA expression (ratio to GAPDH mRNA density) relative to control ([2]; listed as oxandrolone): 11 fold | expression of type III procollagen mRNA relative to control [2]: enhanced | expression of type III procollagen mRNA relative to control ([2]; listed as oxandrolone): minimal change; also recorded: minimal effect | concentration giving the maximal intensity of collagen α chain staining [3]: 3 µg/mL | cell morphology [4]: no obvious difference | number of fibroblasts [4]: did not affect
